The values below come from ChEMBL document CHEMBL3112544, “Discovery of ZAP70 inhibitors by high-throughput docking into a conformation of its kinase domain generated by molecular dynamics” (Bioorg Med Chem Lett, 2013).

Structures are written as SMILES. Calls of active or inactive are those of the source. The calls are words filed in the database; no cut-off is given here.

Test [1] has as its target T1, Tyrosine-protein kinase ZAP-70 (Homo sapiens) (UniProt P43403).
T1 sequence (whole entry): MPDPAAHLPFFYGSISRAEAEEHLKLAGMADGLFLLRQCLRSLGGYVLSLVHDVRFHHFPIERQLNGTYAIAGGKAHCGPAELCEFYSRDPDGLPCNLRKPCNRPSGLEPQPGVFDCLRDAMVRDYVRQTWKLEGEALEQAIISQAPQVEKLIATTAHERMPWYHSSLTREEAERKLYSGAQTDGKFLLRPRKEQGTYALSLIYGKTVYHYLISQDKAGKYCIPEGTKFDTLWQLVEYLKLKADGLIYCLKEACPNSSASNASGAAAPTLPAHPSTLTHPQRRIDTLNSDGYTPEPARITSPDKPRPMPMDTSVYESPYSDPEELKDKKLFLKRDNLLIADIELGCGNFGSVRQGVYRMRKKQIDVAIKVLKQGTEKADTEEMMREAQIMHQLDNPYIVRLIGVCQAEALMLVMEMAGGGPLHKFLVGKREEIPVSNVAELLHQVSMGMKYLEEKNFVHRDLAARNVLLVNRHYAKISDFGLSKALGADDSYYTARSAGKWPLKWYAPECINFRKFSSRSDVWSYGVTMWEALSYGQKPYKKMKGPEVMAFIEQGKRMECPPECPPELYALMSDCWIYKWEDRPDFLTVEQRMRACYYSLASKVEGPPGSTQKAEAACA
Briefly: Inhibition of full-length ZAP70 (unknown origin) at 20 uM by radioactive ATP method.

For test [2], the target named is T2, Tyrosine-protein kinase ZAP-70 (Homo sapiens, UniProt P43403).
T2 sequence (P43403 whole entry): T1 sequence (whole entry)
Briefly: Inhibition of full-length ZAP70 (unknown origin) by radioactive ATP method.

The target of test [3] is T3, Tyrosine-protein kinase SYK (Homo sapiens, UniProt P43405). The experiment in a line: Inhibition of SYK (unknown origin) by radioactive ATP method.
In test [4] the target is T3, Tyrosine-protein kinase SYK. Briefly: Inhibition of SYK (unknown origin) at 20 uM by radioactive ATP method.
The target in test [5] is T4, Tyrosine-protein kinase JAK2 (Homo sapiens, UniProt O60674). Briefly: Inhibition of JAK2 (unknown origin) by radioactive ATP method.
T4 sequence (O60674 whole entry): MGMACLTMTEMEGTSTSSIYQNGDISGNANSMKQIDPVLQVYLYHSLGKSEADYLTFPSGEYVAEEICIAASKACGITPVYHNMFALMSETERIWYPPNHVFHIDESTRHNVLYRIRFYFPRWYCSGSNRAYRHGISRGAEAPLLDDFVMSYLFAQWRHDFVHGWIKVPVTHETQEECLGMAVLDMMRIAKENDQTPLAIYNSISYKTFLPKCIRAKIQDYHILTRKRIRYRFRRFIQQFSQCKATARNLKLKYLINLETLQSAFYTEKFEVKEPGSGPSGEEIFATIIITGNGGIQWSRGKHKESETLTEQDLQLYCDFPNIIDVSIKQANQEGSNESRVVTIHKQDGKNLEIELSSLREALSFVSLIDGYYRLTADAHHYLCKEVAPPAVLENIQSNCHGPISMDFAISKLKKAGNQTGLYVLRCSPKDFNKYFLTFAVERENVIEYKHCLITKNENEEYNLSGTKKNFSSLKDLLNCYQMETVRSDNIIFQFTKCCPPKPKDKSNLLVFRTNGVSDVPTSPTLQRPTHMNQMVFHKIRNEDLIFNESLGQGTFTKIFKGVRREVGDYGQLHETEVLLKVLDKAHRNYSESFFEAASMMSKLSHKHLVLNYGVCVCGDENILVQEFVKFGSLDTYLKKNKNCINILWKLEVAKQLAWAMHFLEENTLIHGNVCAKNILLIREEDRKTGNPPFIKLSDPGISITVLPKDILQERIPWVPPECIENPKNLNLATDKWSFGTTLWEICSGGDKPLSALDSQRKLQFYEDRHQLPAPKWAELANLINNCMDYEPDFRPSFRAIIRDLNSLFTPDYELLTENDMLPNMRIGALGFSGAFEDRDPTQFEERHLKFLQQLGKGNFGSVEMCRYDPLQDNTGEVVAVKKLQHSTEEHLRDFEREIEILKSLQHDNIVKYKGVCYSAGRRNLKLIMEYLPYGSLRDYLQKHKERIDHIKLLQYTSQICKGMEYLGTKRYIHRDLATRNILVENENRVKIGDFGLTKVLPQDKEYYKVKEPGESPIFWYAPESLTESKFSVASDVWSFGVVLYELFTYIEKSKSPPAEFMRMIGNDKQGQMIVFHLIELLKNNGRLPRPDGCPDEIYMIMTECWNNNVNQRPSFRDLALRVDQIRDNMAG
Test [6] has as its target T4, Tyrosine-protein kinase JAK2. The experiment in a line: Inhibition of JAK2 (unknown origin) at 20 uM by radioactive ATP method.

For `O=C1Nc2ccc(S(=O)(=O)Cc3ccc4ccccc4c3)c3cccc1c23`, the inhibition entry in test [1] was “inactive”.

In the case of `Cc1ccc2[nH]c3c(c2c1)CCC1C3=NNC1c1ccccc1` (stereo unspecified), in test [1], the inhibition result was “inactive”.

`COc1ccc(NC2=NC3NN=C(N)C3C3=C2CN(C)CC3)cc1` (stereo unspecified): the inhibition entry in test [1] was “inactive”.

As to `O=C1Nc2ccccc2/C1=C(\c1ccccc1)c1nc2ccccc2[nH]1`, the IC50 worked out at 26 µM in test [2] and 40 µM in test [3].

For `N#C/C(=C1/C(=O)Nc2ccccc21)c1nc2ccccc2[nH]1`, the inhibition result in test [1] was “inactive”.

Regarding `Cc1cc(NC(=O)c2sc(Nc3ccccc3)nc2N)on1`, the inhibition result in test [1] was “inactive”.

On to `N[C@@H](CO)C(=O)N1CCc2[nH]nc(-c3ccc(F)c(F)c3)c2C1`, for which the inhibition entry in test [1] is “inactive”.

Turning to `Cc1cc(/C=C2/C(=O)NN(c3ccccc3)C2=O)c(C)n1-c1cccc(O)c1`, the inhibition was found to be 16% in test [4] and 43% in test [1].

In the case of `CCOc1ccc(Nc2nc(N)c(C(=O)c3cccc(OC)c3)s2)cc1`, the results for the 50% inhibitory concentration (IC50) in test [2] and in test [3] were 29 µM and over 200 µM, respectively.

Take `O=C(c1ccc2[nH]c(=O)[nH]c2c1)N1CCc2[nH]nc(-c3ccccc3)c2C1`: the inhibition result in test [1] is “inactive”.

On to `CC(=O)Nc1ccc(OS(=O)(=O)c2ccc3[nH]c(=O)[nH]c3c2)cc1`, for which, in test [1], the inhibition entry was “inactive”.

As to `O=C1NN(c2ccccc2)C(=O)/C1=C\c1cc(Cl)ccc1OCc1ccccc1`, in test [4], the inhibition is 16%. Also, the IC50 in test [2] came out at 22 µM; in test [5], 15 µM.

With `Nc1ccc(C(=O)N2CCc3[nH]nc(-c4cc(F)cc(F)c4)c3C2)cn1`, the inhibition result in test [1] was “inactive”.

On to `O=C1NC(=O)N(c2ccccc2F)C(=O)/C1=C\c1cccn1-c1ccccc1`, for which the inhibition result in test [1] was “inactive”.

Regarding `CC(C)c1ccc(-c2c(C#N)c(N)nc3sc(C(N)=O)c(N)c23)cc1`, in test [1], the inhibition entry was “inactive”.

In the case of `O=C1NN(c2ccc(F)cc2)C(=O)/C1=C\c1cccc(OCc2ccccc2F)c1`, the results for the inhibition in test [6], in test [4] and in test [1] were 22%, 16% and 46%, respectively.

With `O=C1NN(c2ccccc2)C(=O)/C1=C/c1ccc(-c2ccccc2)o1`, the inhibition in test [4] amounted to 17%; in test [1], 49%.

On to `Oc1ccc(-c2ccnc3cc(Cl)ccc23)cc1CN1CCCCC1`, for which the inhibition result in test [1] is “inactive”.

As for `Clc1cccc(C2C=C(c3cccnc3)Nc3nc4ccccc4n32)c1` (stereo unspecified), the inhibition entry in test [1] was “inactive”.

As to `CCn1c(N)c(-c2csc(-c3ccc(O)cc3)n2)c(=O)[nH]c1=O`, the inhibition entry in test [1] is “inactive”.

Consider `Cc1ccc(-c2n[nH]c3c2CN(c2ncc(F)c(NCCO)n2)CC3)cc1`, for which the inhibition entry in test [1] is “inactive”.

`O=C1Nc2ccc3c(oc4ccccc43)c2C1=NNc1ccncc1`: the 50% inhibitory concentration (IC50) in test [2] was 8 µM; in test [3], 26 µM; in test [5], 11 µM.

On to `O=C1N/C(=C/c2ccc(O)cc2)C(=O)N1c1ccccc1`, for which, in test [1], the inhibition result is “inactive”.

With `COc1ccc(Nc2nc(N3CCOCC3)c3nc[nH]c3n2)cc1OC`, the IC50 in test [2] is 62 µM; in test [3], 12 µM; in test [5], 0.11 µM.

Consider `O=C1NC(=O)N(c2cccc(F)c2)C(=O)/C1=C\c1cccn1-c1ccccc1`, for which the inhibition entry in test [1] is “inactive”.

As for `O=c1[nH]c2ccc(S(=O)(=O)NC3CC3)cc2c2ccccc12`, the inhibition result in test [1] was “inactive”.

In the case of `O=C1NC(=O)N(c2ccc(F)cc2)C(=O)/C1=C\c1cccn1-c1ccc(O)cc1`, in test [1], the inhibition entry is “inactive”.

Take `O=C1NN(c2ccccc2)C(=O)/C1=C/c1ccc(-c2ccccc2Cl)o1`: the IC50 was found to be 14 µM in test [2] and 57 µM in test [3].

With `COc1cccc(-c2ccnc3[nH]n(-c4ccccc4)c(=O)c23)c1`, the inhibition result in test [1] was “inactive”.

For the compound `O=C(c1ccc2[nH]cnc2c1)N1CCc2[nH]nc(-c3cccc(Cl)c3)c2C1`, the inhibition entry in test [1] is “inactive”.

Turning to `O=C1NC(=S)N/C1=C1\C(=O)N(Cc2ccccc2Cl)c2ccccc21`, the IC50 was found to be 21 µM in test [2] and 168 µM in test [3].

For the compound `COc1ccc(/C=C2/NC(=O)N(c3cccc(Cl)c3)C2=O)cc1O`, the inhibition result in test [1] is “inactive”.

The inhibition is how much of the control response was suppressed. What is called IC50 is the concentration that inhibits the measured activity by half.
